# Reference: patent US20050228016A1, “TETRAHYDROQUINOLINES FOR MODULATING THE EXPRESSION OF EXOGENOUS GENES VIA AN ECDYSONE RECEPTOR COMPLEX” (priority 2002, published 2005)
# Assays:
# [1] = tested on: GAL4 DBD-CfEcR(DEF)/VP16AD-MmRXRE; conditions: CHO 13B3 clone, 48 h, average of two wells
# Outline: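 CHO 13B3 clone stably expressing GAL4 DBD-CfEcR(DEF) and VP16AD-MmRXRE with GAL4 RE-luciferase reporter; ligands from DMSO stocks diluted 300-fold. Luciferase read 48 h after treatment; duplicate wells averaged, fold induction = RLU ligand-treated / RLU DMSO-treated.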
# [2] = biological target: T1, Bombyx mori EcR (VP16-BmEcR, CVBE) (Bombyx mori, UniProt P49881); assay: Z3 assay (HEK-293 clone Z3 with CVBE and 6x EcRE LacZ, β-galactosidase reporter); assay type: cell-based; conditions: 48 h, average of two wells
# T1 construct: expressed in transfected cells
# T1 sequence (P49881 86-606): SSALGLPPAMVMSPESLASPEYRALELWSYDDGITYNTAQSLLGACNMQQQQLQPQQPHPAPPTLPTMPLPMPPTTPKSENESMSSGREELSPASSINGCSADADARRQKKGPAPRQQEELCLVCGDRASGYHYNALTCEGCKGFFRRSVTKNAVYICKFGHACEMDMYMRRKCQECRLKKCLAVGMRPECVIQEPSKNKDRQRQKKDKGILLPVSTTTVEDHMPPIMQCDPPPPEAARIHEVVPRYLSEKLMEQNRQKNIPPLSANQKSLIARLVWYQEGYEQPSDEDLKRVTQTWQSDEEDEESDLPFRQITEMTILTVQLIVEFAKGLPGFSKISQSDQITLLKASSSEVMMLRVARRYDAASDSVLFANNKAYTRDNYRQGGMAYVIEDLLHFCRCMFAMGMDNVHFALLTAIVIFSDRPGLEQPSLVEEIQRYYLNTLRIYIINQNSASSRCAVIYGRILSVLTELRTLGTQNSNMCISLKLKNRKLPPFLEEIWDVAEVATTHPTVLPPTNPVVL
# DmEcR + LmUSP = biological target: T2, DmEcR + LmUSP (Drosophila melanogaster, UniProt P34021); conditions: DmEcR + LmUSP in 3T3 cells, reporter assayed 48 h after ligand
# T2 sequence (P34021 342-878): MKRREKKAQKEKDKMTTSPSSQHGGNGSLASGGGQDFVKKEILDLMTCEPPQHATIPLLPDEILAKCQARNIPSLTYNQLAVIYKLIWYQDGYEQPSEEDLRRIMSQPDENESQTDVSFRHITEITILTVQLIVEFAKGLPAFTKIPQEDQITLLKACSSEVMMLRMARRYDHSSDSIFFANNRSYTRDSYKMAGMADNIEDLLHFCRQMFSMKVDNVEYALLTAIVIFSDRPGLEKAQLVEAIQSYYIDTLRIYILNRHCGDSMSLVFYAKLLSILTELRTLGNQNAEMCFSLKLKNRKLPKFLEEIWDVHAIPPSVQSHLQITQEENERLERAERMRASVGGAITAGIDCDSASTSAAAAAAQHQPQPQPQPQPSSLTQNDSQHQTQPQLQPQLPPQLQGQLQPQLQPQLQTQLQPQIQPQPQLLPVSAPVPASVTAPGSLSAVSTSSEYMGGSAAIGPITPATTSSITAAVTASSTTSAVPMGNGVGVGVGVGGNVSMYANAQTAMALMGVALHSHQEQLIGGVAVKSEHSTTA
# Protocol: To determine if any of the compounds shown in Table 1 and Table 2 can act as inducers of reporter gene activity in a transactivation assay, these compounds were tested in NIH3T3 cells transfected with pFRLUC reporter and gene expression cassettes, 1.1 to 1.8 described in Example 1. […] At 48 hr after adding ligand, the cells were harvested and reporter activity was assayed using Dual Luciferase assay kit (Promega carporation). Total relative light units (RLU) are shown. Standard methods for culture and maintenance of the cells were followed.
# Transfections: DNAs corresponding to the various switch constructs outlined in Example I, specifically switches 1.1 through 1.8, were transfected into mouse NIH3T3 cells (ATCC) as follows. Cells were harvested when they reached 50% confluency and plated in 6-, 12- or 24-well plates at 125,000, 50,000, or 25,000 cells, respectively, in 2.5, 1.0, or 0.5 ml of growth medium containing 10% fetal bovine serum (FBS), respectively. The next day, the cells were rinsed with growth medium and transfected for four hours. […] For 12-well plates, 4 μl of Superfect™ was mixed with 100 μl of growth medium. 1.0 μg of reporter construct and 0.25 μg of each receptor construct of the receptor pair to be analyzed were added to the transfection mix. A second reporter construct was added [pTKRL (Promega), 0.1 μg/transfection mix] that comprises a Renilla luciferase gene operably linked and placed under the control of a thymidine kinase (TK) constitutive promoter and was used for normalization. The contents of the transfection mix were mixed in a vortex mixer and let stand at room temperature for 30 min. At the end of incubation, the transfection mix was added to the cells maintained in 400 μl growth medium. The cells were maintained at 37° C. and 5% CO2 for four hours. At the end of incubation, 500 μl of growth medium containing 20% FBS and either dimethylsulfoxide (DMSO; control) or a DMSO solution of 0.1, 1, and 10 μM ligand was added and the cells were maintained at 37° C. and 5% CO2 for 48 hours. The cells were harvested and reporter activity was assayed. The same procedure was followed for 6 and 24 well plates as well except all the reagents were doubled for 6 well plates and reduced to half for 24-well plates.
# Ligands: All ligands were dissolved in DMSO and the final concentration of DMSO was maintained at 0.1% in both controls and treatments.
# Reporter Assays: Cells were harvested 48 hours after adding ligands. 125, 250, or 500 μl of passive lysis buffer (part of Dual-luciferase™ reporter assay system from Promega Corporation) were added to each well of 24- or 12- or 6-well plates respectively. The plates were placed on a rotary shaker for 15 minutes. Twenty μl of lysate were assayed. Luciferase activity was measured using Dual-luciferase™ reporter assay system from Promega Corporation following the manufacturer's instructions.
smiles,measurement,setting,value
C[C@H]1C[C@H](Nc2ccc(F)cc2)c2cc(F)ccc2N1C(=O)c1ccc(F)c(C(F)(F)F)c1 (relative stereo) [Compound I-5],"Fold Induction Average, 13B3V1 Assay 33 μM",[1],1 fold
same,"Fold Induction Average, Z3V1 Assay 33 μM",[2],96 fold
same,Fold Induction (10 μM),DmEcR + LmUSP; 10 μM,8 fold
same,Fold Induction (100 μM),DmEcR + LmUSP; 100 μM,7 fold
